Assay results reported in patent US12171793B2, “Method of activating lactic acid bacteria” (INFANT BACTERIAL THERAPEUTICS AB, priority 2015, dated 2024).
“Also recorded” adds a separate entry of the source.

Columns and labels:
[1] = tested on: Lactobacillus reuteri DSM 17938; assay: Growth of Lactobacillus reuteri in simulated intestinal substrate (SIS); type: cell-based; conditions: FIG. 1; GOS or glucose plus electron acceptor, 15 mM of each; 16 h at 37° C., anaerobic
Description: The growth of L. reuteri DSM 17938 on different combinations of sugar and electron acceptors was evaluated in “Simulated intestinal substrate” (SIS). [table] Lactobacillus reuteri cells of strain DSM 17938 were first grown over night in MRS broth (Oxoid) at 37° C. After washing in phosphate-buffered saline (PBS) the bacteria were diluted 10 × in PBS. 10 μl of bacterial suspension was thereafter inoculated to 10 ml SIS (with addition of sugar and electron acceptor), and the bacteria were cultivated for 16 h at 37° C. during anaerobic conditions and no shaking. The growth of Lactobacillus reuteri DSM 17938 in SIS with lactose and citrate as the sugar-electron acceptor pair is evaluated in the same way as described above for GOS and citrate as the electron acceptor. The above described substrate (SIS) is used.

[2] = tested on: Lactobacillus reuteri DSM 17938; assay: Evaluation of activation time by turbidity (BioScreen) in simulated intestinal medium STMmod 3; type: cell-based; conditions: STMmod 3, 37° C., OD 600 nm; with citrate compared to without citrate; FIG. 3
Description: The activation time in simulated intestinal medium (STMmod 3, see Table 4) of the two variants of lyophilized DSM 17938 (C and N) were analyzed using a computer-controlled incubator/reader/shaker (BioScreen C MBR) that measure the change in turbidity over time. The medium STMmod 3 was used to mimic the conditions in the intestine. To each well 200 μl of STMmod 3 was added. Thereafter different volumes (100, 60, 40, 30, 25 μl) of bacterial suspension (vials with lyophilized bacteria suspended in 1 ml dH2O) were added. Volumes were adjusted to 300 μl with dH2O. The analysis of each inoculation volume was done in triplicates. The BioScreen analysis was run at 37° C. for 24 hours with a 15 min interval between measurements (OD 600 nm), with the addition of a 10 s shaking step before each measuring point. [table]

SMILES: O=C(O)CC(O)(CC(=O)O)C(=O)O [Citrate]
- growth of Lactobacillus reuteri DSM 17938 in simulated intestinal substrate [1]: highest effect
- time to reach a 3% increase in OD (activation time) [2]: shorter time; also recorded: shorten the activation time
